Reference: patent publication US20100168146A1, “Composition Comprising (R)-Spiro[L-Azabicyclo[2.2.2]Octane-3,2'(3'H)-Furo[2,3-B]Pyridine (AZD0328) and its Use in the Treatment of Alzheimer's Disease, ADHD or Cognitive Dysfunction” (priority 2008, published 2010)
Entries after “also recorded” stand apart in the source; their conditions may differ.

Legend:
[1] = Single oral dose PK in healthy human volunteers (Table A); assay type: in vivo
Protocol: Total oral doses of AZD0328 in the range 0.025-0.68 mg produced mean plasma concentrations of 0.6-15 nM, consistent with the range of plasma concentrations found to be associated with improved performance in the spatial delayed response test in monkeys. Total oral doses of AZD0328 in the range 0.005-2 mg produced mean plasma concentrations of 0.17-43.9 nM, within the range of plasma concentrations found to be associated with improved performance in rodent models.

rhesus monkeys = test: Spatial delayed response (SDR) task; assay type: in vivo, rhesus monkey (macaca mulatta)
Excerpt: AZD0328 at low doses improved performance in the spatial delayed response test in monkeys. Rhesus monkeys were trained in a spatial delayed response task. In this task, food-motivated monkeys observed one of several spatially-displaced wells being baited with a food reward. After a brief delay during which a shutter is drawn and the wells are covered, the monkey must indicate the position of the baited well to receive the food reward. The performance of groups of monkeys was titrated into a narrow range by changing the number of wells or the duration of the delay. Monkeys were tested extensively to establish baseline performance before being administered drug or vehicle. Intramuscular administration of 0.00048 or 0.0016 mg/kg AZD0328 evoked a sustained increase in the percentage of correct responses monkeys made when compared with responses of vehicle-treated monkeys.
Rhesus monkey were trained in a spatial delayed response task. Middle doses of AZD0328 (0.0016 and 0.00048 mg/kg im) evoked a sustained improvement in rhesus monkey performance, while a higher dose (0.48 mg/kg) and a lower dose (0.000016 mg/kg) transiently impaired performance of the task (Table 2).

[2] = test system: fimbria formix transected rats; test: Fimbria formix transected rat model (DNMTP, DRL, LTP); assay type: in vivo
Protocol: Previously, AZD0328 has been described, for example in U.S. Pat. No. 6,110,914 and counterpart worldwide patents, as an α7 agonist. In a widely used model of cognitive dysfunction using fimbria formix transected rats challenged to perform Delayed Non-Match to Position or Differential Reinforcement of Low Rates of Responding tasks, agonistic doses of 1 mg per kg and higher of AZD0328 effectively compensated for the acetylcholine deficiencies of these animals. These doses were associated with plasma concentrations at which AZD0328 acts as an agonist at α7 receptors in vitro. However, lower concentrations were ineffective in these model systems.
The potency of AZD0328 to activate α7 receptors in these in vitro preparations was in the micromolar range. […] For example, 1 or 3 mg/kg of AZD0328 reversed deficits in hippocampal long-term potentiation or response accuracy in two different cognitive tests in fimbria-formix lesioned animals (delayed non-match to position and differential reinforcement of low rates of responding). The minimum effective dose of 1 mg per kg necessary to reverse deficits in the rat fimbria formix model produced plasma concentrations in the range 0.29-1.4 μM in the rat, consistent with the range of concentrations required to activate α7 responses in vitro.

[3] = test system: isolated perfused female rabbit hearts; test: Isolated perfused rabbit heart (Hondeghem model)
Excerpt: Proarrhythmic properties of AZD0328 were investigated in 6 isolated perfused female rabbit hearts according to the Hondeghem model (Table 3). Effects of AZD0328 on action potential duration at 60% of repolarisation (APD60), and Triangulation, Reverse-use dependence and Instability (T, R, I) of the action potential, were studied. Also, a “flag” was raised when T, R or I reached a critical threshold level, below which is considered safe, and the total number of flags was presented as increase in percentage flags. The % flags parameter is considered to be the most sensitive measure of proarrhythmia in this in vitro model, with a threshold for cause of concern at 2.5%. The % flags increased concentration-dependently above threshold at 9 and 30 μM. Although TRIad elements were present, there were no overt signs of proarrhythmia such as early-afterdepolarisations (EADs), Torsade de Pointes, or ventricular fibrillation. In this study the no adverse effect level (NOAEL) of AZD0328 for proarrhythmic signals was 3 μm.

rats [4] = test: Spontaneous locomotor activity; assay type: in vivo; details: Wistar rat, oral gavage, 90 min session
Protocol: AZD0328 was investigated for possible effects on spontaneous locomotor activity in rats (n=6/group)(Table 3). Animals were individually placed in locomotor activity boxes for a 90 min test session. Movements within the box were measured by infrared beams, and activity was assessed as ambulatory counts, stereotypic counts, vertical counts, and resting time.

rats [5] = test: Intestinal motility (charcoal meal test, glass bead test); assay type: in vivo; details: rat, oral
Protocol: Effects of AZD0328 on small intestinal and colorectal motility were investigated in rats using the charcoal meal test and the glass bead test, respectively (Table 3). In the first part, evaluating intestinal transit, a test meal containing charcoal as a non-absorbable marker was administered to rats. In the second part, effects of oral administration of AZD0328 on colo-rectal transit time was evaluated.

[6] = PK/TK multiple dose studies; assay type: in vivo; details: rabbit 2F, DMB15, subcutaneous 1.15 mg/kg (3 μmol/kg), day 18
Excerpt: This section provides a summary of the pharmacokinetic and metabolism properties of AZD0328 derived from in vivo studies. […] The derived PK/TK parameters from these studies are presented in Table 4 for single dose studies (DMR4, 0619LR, 20030191PCR, DM016, DMB10, DMW12, 50190, 0190DD and 03.330/1), and are presented in Table 5 multiple dose PK/TK studies (DMR4, 0612AR, DMB15, 50190, 0190DD and 0295AD).

dogs = test: Maximum tolerated dose and 7 days oral toxicity; assay type: in vivo; details: dog
Protocol: Single doses of 4.5 to 17 mg/kg were administrated to test AZD0328 to 2 male and 2 female dogs. […] Signs of nausea and at the higher doses vomiting was seen. In the 7 days repeated dose study 2 male and 2 female dogs were given 35 mg/kg per day. However, vomiting was the major clinical sign recorded during the study.

Ames test = test: Ames test; assay type: cell-based
Excerpt: The genotoxic potential of AZD0328 has been evaluated in the Ames test and in the Mouse lymphoma test. AZD0328 was not mutagenic in either of these tests.

[7] = single oral 0.025 mg, geometric mean
[8] = single oral 0.075 mg, geometric mean
[9] = single oral 0.23 mg, geometric mean
[10] = single oral 0.68 mg, geometric mean
[11] = single oral 1.35 mg, geometric mean
[12] = single oral 2 mg, geometric mean

c1cnc2c(c1)C[C@@]1(CN3CCC1CC3)O2 [AZD0328, (R)-Spiro[1-azabicyclo[2.2.2]octane-3,2′(3′H)-furo[2,3-b]pyridine]]
Cmax/Dose ([1]; single oral 0.005 mg, geometric mean (% CV)): 0.007 (24) | AUC/Dose [1, 7]: 0.053 | CL/F [1, 7]: 19.0 L/h | Cmax/Dose [1, 7]: 0.006 | AUC/Dose [1, 8]: 0.049 | Cmax/Dose [1, 8]: 0.006 | AUC/Dose [1, 9]: 0.061 | Cmax/Dose [1, 9]: 0.006 | t1/2 [1, 9]: 6.7 h | AUC/Dose [1, 10]: 0.046 | Cmax/Dose [1, 10]: 0.005 | t1/2 [1, 10]: 6.0 h | AUC/Dose [1, 11]: 0.054 | Cmax/Dose [1, 11]: 0.005 | AUC/Dose [1, 12]: 0.046 | CL/F [1, 12]: 22.0 L/h | Cmax/Dose [1, 12]: 0.005 | Duration of improved performance after a single dose (rhesus monkeys; four of nine monkeys improved at middle doses): more than one month | Lower doses with no effect or transient impairment (rhesus monkeys; rhesus monkeys): ≥ 0.00016 mg/kg | Percent correct responses (rhesus monkeys; rhesus monkeys, 0.016 mg/kg): non-significant increase | Minimum effective dose [2]: 1 mg per kg | NOAEL in the proarrhythmic isolated heart assay [3]: 0.9 µM | NOAEL for proarrhythmic signals ([3]; isolated perfused rabbit heart): 3 μm | Dose without effect on locomotor activity (rats [4]): up to 129.8 mg/kg | Dose with inhibition of small- and large-intestinal motility (rats [5]): ≥ 130 µmol/kg | Tmax [6]: 0.3 to 1 h | Dose with slight QT prolongation (ECG) (dogs): ≥ 8.6 mg/kg | Mutagenicity / genotoxicity (Ames test): not genotoxic; also recorded: not mutagenic
